Experimental data published in patent US9334280B2, “Synthetic rigidin analogues as anticancer agents, salts, solvates and prodrugs thereof, and method of producing same” (New Mexico Technical Research Foundation, priority 2012, dated 2016).

Tests used:
[1] = tested on: MCF-7 mammary gland adenocarcinoma cells; assay: MTT antiproliferative assay, MCF-7; type: cell-based; conditions: Homo sapiens, MCF7; Table 1; 48 h treatment, MTT, ± SD; read-out: GI50 in vitro Values, MCF-7
How it was run: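 Cells were seeded at 4×10^3 per well, grown 24 h, then treated at 0.04–100 μM for 48 h; HeLa in DMEM and MCF-7 in RPMI, each with 10% FBS. MTT for 2 h, formazan dissolved in DMSO, A490 read; quadruplicate, at least two repeats, 0.1% DMSO vehicle control and 1 μM phenyl arsine oxide as positive killing control.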

[2] = tested on: MES-SA uterine sarcoma cells; assay: MTT antiproliferative assay, MES-SA; type: cell-based; conditions: Homo sapiens, Table 3, parental drug-responsive cell line, read-out: GI50 in vitro Values, MES-SA
Protocol: Human T-cell leukemia cell line Jurkat (ATCC TIB-152, E6-1 clone) was cultured in RPMI-1640 (Invitrogen) supplemented with 10% FBS (Invitrogen), 100 mg/L penicillin G, 100 mg/L streptomycin, 1.0 mM sodium pyruvate, 1.5 g/L sodium bicarbonate, and 4.5 g/L glucose (all from Sigma). Human cervical cancer cell line HeLa (ATCC S3) was cultured in DMEM (Invitrogen) supplemented with 10% FBS, 100 mg/L penicillin G, and 100 mg/L streptomycin. MCF-7 (human mammary carcinoma) cells were cultured in DMEM supplemented with 1.0 mM sodium pyruvate, 1% GlutaMax™-1 (Invitrogen), 100 μg/mL penicillin, 100 μg/mL streptomycin, and 10% FBS. Human uterine sarcoma MES-SA and MES-SA/Dx5 cells were cultured in RPMI-1640 medium supplemented with 10% FBS, 100 mg/L penicillin G and 100 mg/L streptomycin. All cells were incubated at 37° C. in a humidified atmosphere with 5% CO2. […]
To evaluate antiproliferative properties of the compounds of Formula I, mitochondrial dehydrogenase activities were measured using the MTT assay. […] Media was removed and the resulting formazan crystals were re-solubilized in 100 microL of DMSO and the optical density (OD) was measured using a Thermomax Molecular Device plate reader at a wavelength of 490 nm. […]
The cells of such tumors are referred to as multidrug resistant (MDR). Thus, we assessed the compounds of Formula I for antiproliferative activity in an MDR cancer cell line. […]

B16F10 melanoma cells = assay: MTT antiproliferative assay, B16F10; type: cell-based; conditions: Mus musculus, B16-F10, Table 2, 48 h, read-out: GI50 in vitro values, B16F10
Protocol: (§1) To evaluate antiproliferative properties of the compounds of Formula I, mitochondrial dehydrogenase activities were measured using the MTT assay. The cell lines were prepared by trypsinizing and seeding […] cells per well into microplates. All compounds were reconstituted in dimethyl sulfoxide (DMSO) at a concentration of either 100 mM or 25 mM prior to treatment. The cells were grown for 24 hrs before treatment at concentrations ranging from 0.004 to 100 microM and incubated for 48 hrs in 200 microL media. 20 microL of MTT reagent in serum free medium (5 mg/mL) was added to each well and incubated further for 2 hrs. Media was removed and the resulting formazan crystals were re-solubilized in 100 microL of DMSO and the optical density (OD) was measured using a Thermomax Molecular Device plate reader at a wavelength of 490 nm. The experiments were performed in quadruplicate and repeated at least twice for each compound per cell line. Cells treated with 0.1% DMSO were used as a negative control, while phenyl arsine oxide (PAO) was used as a positive killing control.

[3] = tested on: MES-SA/Dx5 uterine sarcoma cells (overexpress p-gp); assay: MTT antiproliferative assay, MDR MES-SA/Dx5; type: cell-based, human
Protocol: Human T-cell leukemia cell line Jurkat (ATCC TIB-152, E6-1 clone) was cultured in RPMI-1640 (Invitrogen) supplemented with 10% FBS (Invitrogen), 100 mg/L penicillin G, 100 mg/L streptomycin, 1.0 mM sodium pyruvate, 1.5 g/L sodium bicarbonate, and 4.5 g/L glucose (all from Sigma). Human cervical cancer cell line HeLa (ATCC S3) was cultured in DMEM (Invitrogen) supplemented with 10% FBS, 100 mg/L penicillin G, and 100 mg/L streptomycin. MCF-7 (human mammary carcinoma) cells were cultured in DMEM supplemented with 1.0 mM sodium pyruvate, 1% GlutaMax™-1 (Invitrogen), 100 μg/mL penicillin, 100 μg/mL streptomycin, and 10% FBS. Human uterine sarcoma MES-SA and MES-SA/Dx5 cells were cultured in RPMI-1640 medium supplemented with 10% FBS, 100 mg/L penicillin G and 100 mg/L streptomycin. All cells were incubated at 37° C. in a humidified atmosphere with 5% CO2. The other cell lines were maintained in a similar fashion as previously described.
as §1
The cells of such tumors are referred to as multidrug resistant (MDR). Thus, we assessed the compounds of Formula I for antiproliferative activity in an MDR cancer cell line. This was done using the uterine sarcoma cells, MES-SA/Dx5, which overexpress p-gp. The parental drug-responsive MES-SA cell line was used as control.

[4] = tested on: UM-SCC22B head and neck metastases cells; assay: MTT antiproliferative assay, UM-SCC22B; type: cell-based; conditions: Homo sapiens, UMSCC22B, Table 1A, 48 h, read-out: Concentration required to reduce the viability of cells by 50%, UM-SCC22B
Protocol: as §1

[5] = tested on: UM-SCC10A head and neck cancer cells; assay: MTT antiproliferative assay, UM-SCC10A; type: cell-based; conditions: UMSCC-10A, Table 1A, 48 h, read-out: Concentration required to reduce the viability of cells by 50%, UM-SCC10A
Protocol: as §1

O=C(c1ccccc1)c1[nH]c2[nH]cnc(=O)c2c1-c1cc(Br)cc(Br)c1 [Rig8, 6-Benzoyl-5-(3,5-dibromophenyl)-1H-pyrrolo[2,3-d]pyrimidin-4(7H)-one]
GI50 [1]: 95 ± 10 nM
GI50 [2]: 81 ± 6 nM
GI50 (B16F10 melanoma cells): 50 nM
GI50 ([3]; Homo sapiens, MES-SA/Dx5, Table 3, MDR cell line, read-out: GI50 in vitro Values, MES-SA/Dx5): 394 ± 10 nM
variation in the sensitivities of the parental and MDR cell lines ([3]; MES-SA/Dx5 vs MES-SA, in words): only a small variation
IC50 [4]: 20 nM
IC50 [5]: 90 nM
